Here are results for 1 compound from PMC11871066, “Structure-based discovery of hydrocarbon-stapled paxillin peptides that block FAK scaffolding in cancer” (Nature Communications, 2025).

The series has as its system trypsin. Description: in vitro. Particulars: isolated enzyme trypsin.

Method: Cell permeability of peptide drugs was determined by fluorescence measurement of TAMRA-labeled peptides in 96-well plates and ClarioStar Plus plate reader using BMG ClarioStar MARS software (version 4.20). […] Percent uptake was calculated as background-subtracted fluorescence absorbed by cells/fluorescence of peptide in media-only wells, then made relative to TAMRA-Alkyne. Three biological replicates (n = 3) were performed per cell line per treatment group. Peptide proteolysis was measured using immobilized Trypsin-agarose resin (Thermo Fisher) and quantification by LC-MS. […] In vivo pharmacokinetics were performed by the UACC Analytical Chemistry Shared Resource. […] The mice were fed NIH-31 irradiated pellets (Tekland Premier, Madison, Wisconsin), and reverse osmosis water was freely available. […] The average plasma concentration versus time data were analyzed using PKSolver (version 2.0) by a noncompartmental approach.

Take `CCCCCCCCCCCCCC(=O)N[C@@H](CC(N)=O)C(=O)N[C@@H](CC(C)C)C(=O)N[C@]1(C)CCCCCCC=CCCC[C@@](C)(C(=O)N[C@@H](CCC(=O)O)C(=O)N[C@@H](CC(C)C)C(=O)N[C@@H](CC(N)=O)C(N)=O)NC(=O)[C@H](CC(C)C)NC(=O)[C@H](CC(C)C)NC(=O)[C@H](CCCNC(=N)N)NC(=O)[C@H](CC(=O)O)NC(=O)[C@H](CC(C)C)NC(=O)[C@H](CCC(=O)O)NC1=O` [compound 2012]: the amount remaining at 0.25 h, 100 µM was determined as 91%; the share remaining at 0.5 h, 100 µM came out at 108%; the share remaining at 1 h, 100 µM was 102%; the amount remaining at 2 h, 100 µM worked out at 85%. The fraction remaining at 3 h, 100 µM came out at 104%; the fraction remaining at 4 h, 100 µM turned out to be 91%; the amount remaining at 6 h, 100 µM was determined as 93%; the fraction remaining at 8 h, 100 µM stood at 111%. The amount remaining at 24 h, 100 µM came out at 97% and the amount remaining at 48 h, 100 µM stood at 89%.
